Experimental data reported in paper PMC7259601 (PLoS ONE, 2020).

How the values were obtained:
[1] = tested on: isolated Sprague-Dawley rats; assay: Resident Intruder test, rat isolation rearing model; assay type: in vivo; details: 0.16 or 0.48 mg/kg/day
Experimental: Sprague Dawley Rats: Right after the weaning (post natal day 21-23), 72 Sprague-Dawley male rats (Charles River, bred in the UAB Animal facility) were divided in two groups: Control (N = 18), maintained 3-4 animals per cage; Isolated (N = 54), 1 animal per cage ([…] 1291H Eurostandard type III with ECOPURE CHIPS 6 bedding material, Harlan). Animals were maintained at 21 ± 2 °C controlled temperature in a 12 hr light / dark cycle (lights on at 8:00 am) with ad libitum access to food (2014 TEKLAD, Harlan) and water. […] Control animals were treated with vehicle. The administration route was drinking water and the vehicle 1.8% 2-Hydroxypropyl-b-cyclodextrin. Drug concentration was adjusted weekly by body weight and water consumption. During the last week of treatment, all animals were tested in the EPM and, on a different day, in the RI test (N = 12 / group). After depth anesthesia with Isoflurane, animals were perfused with saline solution followed by paraformaldehyde in order to obtain brain samples for histological analysis.
The protocol was modified from previously described. Briefly, the test subject (resident) was maintained in its home cage without bedding changes for one week. […] In mice the session was video-recorded for 20 min and social interaction (social interaction and rearings) and aggressive behavior (lateral threats, clinch attacks, keep-down behavior) were analyzed. […] In rats the session was video recorded for 15 min and social interaction (active and passive social interaction, number of evitations and time without social interaction) were analyzed. […] In addition, the time spent without social interaction was also measured.
Resident Intruder (RI): Mice were video-recorded for 20 min and social interaction and aggressive behavior were analyzed. Rats were video recorded for 15 min and social interaction (active and passive social interaction, number of evitations and time without social interaction) were analyzed.

[2] = target: T1, beta 1 (h) (agonist radioligand) (Homo sapiens, UniProt P08588); assay: CEREP Diversity Panel; assay type: binding
T1 construct: purchased CEREP (Eurofins Cerep)
Experimental: (§1) […]. MAO-A inhibition at 10 μM was 37%, in line with internal data.

[3] = target: T2, AT1 (h) (antagonist radioligand) (Homo sapiens, UniProt P30556); assay: CEREP Diversity Panel; assay type: binding
T2 construct: purchased CEREP (Eurofins Cerep)
T2 sequence (P30556 whole entry): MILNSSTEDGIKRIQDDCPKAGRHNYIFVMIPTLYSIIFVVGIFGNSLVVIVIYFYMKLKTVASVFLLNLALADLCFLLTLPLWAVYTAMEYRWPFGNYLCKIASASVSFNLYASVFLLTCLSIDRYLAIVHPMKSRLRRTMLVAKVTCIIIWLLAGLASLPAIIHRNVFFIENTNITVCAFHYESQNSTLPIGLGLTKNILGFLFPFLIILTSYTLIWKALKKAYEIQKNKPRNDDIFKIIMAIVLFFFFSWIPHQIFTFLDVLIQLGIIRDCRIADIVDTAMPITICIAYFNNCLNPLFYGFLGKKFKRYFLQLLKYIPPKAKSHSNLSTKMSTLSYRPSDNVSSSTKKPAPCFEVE
Experimental: as §1

[4] = target: T3, beta 2 (h) (agonist radioligand) (Homo sapiens, UniProt P07550); assay: CEREP Diversity Panel; assay type: binding
T3 construct: purchased CEREP (Eurofins Cerep)
T3 sequence (P07550 whole entry): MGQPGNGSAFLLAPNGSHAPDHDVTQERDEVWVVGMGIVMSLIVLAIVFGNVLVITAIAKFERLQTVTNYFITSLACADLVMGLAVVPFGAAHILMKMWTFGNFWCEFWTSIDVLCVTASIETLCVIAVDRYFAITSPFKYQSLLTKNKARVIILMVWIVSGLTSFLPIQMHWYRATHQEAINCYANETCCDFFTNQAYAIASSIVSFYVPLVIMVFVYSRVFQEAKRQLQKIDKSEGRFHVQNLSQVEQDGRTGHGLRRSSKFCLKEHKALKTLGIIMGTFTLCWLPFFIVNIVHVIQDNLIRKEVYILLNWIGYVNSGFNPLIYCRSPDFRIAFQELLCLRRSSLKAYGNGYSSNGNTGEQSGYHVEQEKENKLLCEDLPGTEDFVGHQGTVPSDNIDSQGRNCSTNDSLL
Experimental: as §1

[5] = target: T4, D4.4 (h) (antagonist radioligand) (Homo sapiens, UniProt P21917); assay: CEREP Diversity Panel; assay type: binding
T4 construct: purchased CEREP (Eurofins Cerep)
T4 sequence (P21917 whole entry): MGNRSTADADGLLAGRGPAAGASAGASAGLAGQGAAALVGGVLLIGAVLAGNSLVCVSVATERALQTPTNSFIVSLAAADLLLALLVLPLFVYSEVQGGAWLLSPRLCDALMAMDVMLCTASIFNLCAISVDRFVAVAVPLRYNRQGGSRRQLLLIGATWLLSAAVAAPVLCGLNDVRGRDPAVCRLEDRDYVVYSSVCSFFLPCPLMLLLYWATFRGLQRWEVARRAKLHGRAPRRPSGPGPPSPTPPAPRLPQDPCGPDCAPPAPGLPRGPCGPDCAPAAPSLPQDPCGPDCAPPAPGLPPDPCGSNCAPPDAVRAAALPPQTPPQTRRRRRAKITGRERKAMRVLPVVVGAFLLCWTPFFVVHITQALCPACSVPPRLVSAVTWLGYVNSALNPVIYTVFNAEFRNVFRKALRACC
Experimental: as §1

[6] = target: T5, AT2 (h) (agonist radioligand) (Homo sapiens, UniProt P50052); assay: CEREP Diversity Panel; assay type: binding
T5 construct: purchased CEREP (Eurofins Cerep)
Experimental: as §1

[7] = target: T6, D3 (h) (antagonist radioligand) (Homo sapiens, UniProt P35462); assay: CEREP Diversity Panel; assay type: binding
T6 construct: purchased CEREP (Eurofins Cerep)
T6 sequence (P35462 whole entry): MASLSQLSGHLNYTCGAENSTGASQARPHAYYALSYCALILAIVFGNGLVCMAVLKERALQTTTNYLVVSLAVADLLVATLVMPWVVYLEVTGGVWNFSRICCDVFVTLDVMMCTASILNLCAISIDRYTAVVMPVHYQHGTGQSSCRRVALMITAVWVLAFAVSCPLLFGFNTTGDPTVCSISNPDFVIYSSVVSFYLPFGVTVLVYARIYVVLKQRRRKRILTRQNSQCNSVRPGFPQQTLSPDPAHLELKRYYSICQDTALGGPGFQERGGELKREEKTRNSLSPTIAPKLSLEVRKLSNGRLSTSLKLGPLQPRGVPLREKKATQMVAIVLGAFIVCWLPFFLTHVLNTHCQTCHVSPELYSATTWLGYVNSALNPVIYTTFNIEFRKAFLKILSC
Experimental: as §1

[8] = target: T7, V1a (h) (agonist radioligand) (Homo sapiens, UniProt P37288); assay: CEREP Diversity Panel; assay type: binding
T7 construct: purchased CEREP (Eurofins Cerep)
Experimental: as §1

[9] = target: T8, NK1 (h) (agonist radioligand) (Homo sapiens, UniProt P25103); assay: CEREP Diversity Panel; assay type: binding
T8 construct: purchased CEREP (Eurofins Cerep)
T8 sequence (P25103 whole entry): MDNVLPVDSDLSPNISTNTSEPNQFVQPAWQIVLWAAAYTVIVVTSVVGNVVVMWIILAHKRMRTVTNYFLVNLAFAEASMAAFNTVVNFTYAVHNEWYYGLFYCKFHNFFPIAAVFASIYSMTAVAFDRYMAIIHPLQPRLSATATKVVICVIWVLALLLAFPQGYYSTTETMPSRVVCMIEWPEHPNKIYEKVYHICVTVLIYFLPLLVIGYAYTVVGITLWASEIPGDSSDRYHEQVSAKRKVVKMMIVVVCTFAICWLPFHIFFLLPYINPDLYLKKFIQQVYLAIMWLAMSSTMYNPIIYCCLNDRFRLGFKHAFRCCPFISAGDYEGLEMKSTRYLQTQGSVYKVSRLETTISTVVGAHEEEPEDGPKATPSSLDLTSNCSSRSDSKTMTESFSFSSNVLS
Experimental: as §1

[10] = target: T9, choline transporter (CHT1) (h) (antagonist radioligand) (Homo sapiens, UniProt Q9GZV3); assay: CEREP Diversity Panel; assay type: binding
T9 construct: purchased CEREP (Eurofins Cerep)
T9 sequence (Q9GZV3 whole entry): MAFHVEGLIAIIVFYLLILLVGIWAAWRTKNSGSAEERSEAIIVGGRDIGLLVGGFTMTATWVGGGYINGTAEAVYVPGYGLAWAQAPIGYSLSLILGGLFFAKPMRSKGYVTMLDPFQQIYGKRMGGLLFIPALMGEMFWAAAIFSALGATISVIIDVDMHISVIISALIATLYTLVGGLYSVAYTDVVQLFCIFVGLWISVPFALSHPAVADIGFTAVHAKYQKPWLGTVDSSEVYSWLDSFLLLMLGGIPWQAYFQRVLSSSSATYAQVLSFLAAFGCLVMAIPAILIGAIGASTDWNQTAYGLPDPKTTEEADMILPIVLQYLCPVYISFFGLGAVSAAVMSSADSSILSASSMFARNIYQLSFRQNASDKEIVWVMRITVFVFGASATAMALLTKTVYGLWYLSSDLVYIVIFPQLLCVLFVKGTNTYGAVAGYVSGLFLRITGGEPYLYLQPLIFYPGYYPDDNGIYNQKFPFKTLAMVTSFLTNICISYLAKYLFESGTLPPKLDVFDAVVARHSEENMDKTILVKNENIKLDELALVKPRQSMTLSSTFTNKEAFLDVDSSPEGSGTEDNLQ
Experimental: as §1

[11] = target: T10, H3 (h) (agonist radioligand) (Homo sapiens, UniProt Q9Y5N1); assay: CEREP Diversity Panel; assay type: binding
T10 construct: purchased CEREP (Eurofins Cerep)
T10 sequence (Q9Y5N1 whole entry): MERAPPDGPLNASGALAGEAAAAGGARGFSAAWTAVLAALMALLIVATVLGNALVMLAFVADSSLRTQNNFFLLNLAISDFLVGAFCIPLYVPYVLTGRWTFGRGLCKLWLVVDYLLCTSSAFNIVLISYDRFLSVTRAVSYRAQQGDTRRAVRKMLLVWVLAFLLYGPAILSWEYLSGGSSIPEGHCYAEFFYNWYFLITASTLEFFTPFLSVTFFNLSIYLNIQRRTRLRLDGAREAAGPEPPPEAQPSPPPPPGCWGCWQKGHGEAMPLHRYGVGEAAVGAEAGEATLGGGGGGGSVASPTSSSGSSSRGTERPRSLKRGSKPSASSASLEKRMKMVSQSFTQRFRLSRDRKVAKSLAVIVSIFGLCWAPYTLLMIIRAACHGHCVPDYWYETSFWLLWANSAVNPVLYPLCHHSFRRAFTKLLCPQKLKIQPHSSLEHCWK
Experimental: as §1

[12] = target: T11, NK3 (h) (antagonist radioligand) (Homo sapiens, UniProt P29371); assay: CEREP Diversity Panel; assay type: binding
T11 construct: purchased CEREP (Eurofins Cerep)
T11 sequence (P29371 whole entry): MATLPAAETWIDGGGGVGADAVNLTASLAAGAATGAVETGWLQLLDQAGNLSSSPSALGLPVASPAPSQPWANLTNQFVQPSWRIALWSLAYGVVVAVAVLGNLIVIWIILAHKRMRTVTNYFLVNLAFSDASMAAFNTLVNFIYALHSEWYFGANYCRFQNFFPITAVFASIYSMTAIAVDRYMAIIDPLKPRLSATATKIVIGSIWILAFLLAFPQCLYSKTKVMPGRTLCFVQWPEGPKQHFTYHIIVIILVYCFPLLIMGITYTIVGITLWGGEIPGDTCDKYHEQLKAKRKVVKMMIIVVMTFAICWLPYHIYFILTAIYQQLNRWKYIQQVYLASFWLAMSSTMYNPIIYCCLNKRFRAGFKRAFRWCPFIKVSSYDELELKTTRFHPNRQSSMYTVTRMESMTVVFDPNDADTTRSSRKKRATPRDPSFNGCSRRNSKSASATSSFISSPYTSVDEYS
Experimental: as §1

[13] = target: T12, PAR1 (h) (agonist radioligand) (Homo sapiens, UniProt P25116); assay: CEREP Diversity Panel; assay type: binding
T12 construct: purchased CEREP (Eurofins Cerep)
T12 sequence (P25116 22-425): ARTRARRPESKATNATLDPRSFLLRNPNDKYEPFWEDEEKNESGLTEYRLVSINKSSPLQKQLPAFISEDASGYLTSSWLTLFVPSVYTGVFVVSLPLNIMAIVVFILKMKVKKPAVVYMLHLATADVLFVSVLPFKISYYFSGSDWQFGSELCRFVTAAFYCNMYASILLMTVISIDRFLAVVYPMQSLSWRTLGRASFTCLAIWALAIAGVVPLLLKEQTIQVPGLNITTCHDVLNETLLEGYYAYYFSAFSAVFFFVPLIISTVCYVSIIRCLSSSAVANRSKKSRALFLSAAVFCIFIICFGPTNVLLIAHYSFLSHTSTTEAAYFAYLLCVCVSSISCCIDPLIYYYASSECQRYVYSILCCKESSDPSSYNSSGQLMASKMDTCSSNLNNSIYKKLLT
Experimental: as §1

[14] = target: T13, B1 (h) (agonist radioligand) (Homo sapiens, UniProt P46663); assay: CEREP Diversity Panel; assay type: binding
T13 construct: purchased CEREP (Eurofins Cerep)
T13 sequence (P46663 whole entry): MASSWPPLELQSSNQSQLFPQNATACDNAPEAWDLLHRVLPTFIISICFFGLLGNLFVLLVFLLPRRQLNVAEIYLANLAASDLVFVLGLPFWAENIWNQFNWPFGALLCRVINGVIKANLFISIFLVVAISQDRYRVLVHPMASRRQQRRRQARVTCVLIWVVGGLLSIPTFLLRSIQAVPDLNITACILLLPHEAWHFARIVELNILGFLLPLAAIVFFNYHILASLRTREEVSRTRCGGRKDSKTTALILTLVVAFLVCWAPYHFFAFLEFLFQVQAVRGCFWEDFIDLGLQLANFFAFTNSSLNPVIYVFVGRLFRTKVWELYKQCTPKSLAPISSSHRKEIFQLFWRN
Experimental: as §1

brain MAO-A = brain MAO-A (Mus musculus, UniProt Q64133); assay: in vivo
Sequence of brain MAO-A (Q64133 whole entry): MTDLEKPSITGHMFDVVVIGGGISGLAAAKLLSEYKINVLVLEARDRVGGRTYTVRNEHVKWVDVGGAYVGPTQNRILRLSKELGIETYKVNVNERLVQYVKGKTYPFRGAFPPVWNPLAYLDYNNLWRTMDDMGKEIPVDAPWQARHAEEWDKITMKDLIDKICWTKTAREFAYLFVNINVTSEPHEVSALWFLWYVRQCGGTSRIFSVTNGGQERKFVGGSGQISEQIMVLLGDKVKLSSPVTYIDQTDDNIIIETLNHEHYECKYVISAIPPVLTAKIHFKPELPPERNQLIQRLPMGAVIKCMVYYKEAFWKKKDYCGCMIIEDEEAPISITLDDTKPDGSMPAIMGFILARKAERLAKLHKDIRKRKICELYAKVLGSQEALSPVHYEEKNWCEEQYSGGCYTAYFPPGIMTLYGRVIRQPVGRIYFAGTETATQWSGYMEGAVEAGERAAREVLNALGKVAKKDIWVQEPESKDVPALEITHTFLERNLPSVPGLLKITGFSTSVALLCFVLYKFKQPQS
Experimental: Male CD1 mice (8 weeks of age, 25-30 g) procured from Charles River were housed in the same conditions as in Ex vivo assay of MAO-A inhibition section.
Ex-vivo MAO-A activity was measured essentially as previously described . […] Brain samples were weighed and then thawed and homogenised in 20 volumes of homogenisation buffer after which MAO-A activity was measured. […] Enzyme activity was corrected by subtracting an assay buffer blank and initially expressed in units of nmoles substrate/min. The protein concentration of the homogenates was measured and used to express final enzyme activity in units of nmoles/min/mg protein. All results are expressed as a mean of duplicate determinations. Brains from animals treated acutely were assayed on a different day to those treated for 5 days (chronically).
MAO-A activity was determined using serotonin creatinine sulphate [2-^14C] as outlined above. Raw enzyme activity values (in nmoles substrate/min) were corrected by subtracting an assay buffer blank and were normalized to the total protein concentration (in nmoles/min/mg protein). All results are means of duplicate determinations. Different drug treatments were compared by Oneway-ANOVA with Dunnett analysis.

Human recombinant MAO-A = target: T14, Human recombinant MAO-A (Homo sapiens, UniProt P21397); assay: MAO-A kynuramine fluorescent assay; assay type: biochemical; details: S1 Table A
T14 construct: purchased Sigma Aldrich M7316
Experimental: Human recombinant monoamine oxidase proteins MAO-A and MAO-B (Sigma Aldrich, M7316 and M7441) were used to monitor the MAO enzymatic activities in a fluorescent assay using kynuramine as a substrate. […] Enzymatic reaction was initiated by the addition of specific KM Kynuramine and incubated 1 hr at 37 °C. The oxidative deamination of the substrate was stopped by adding NaOH 2N (v/v). The conversion of kynuramine to 4-hydroxyquinoline by MAOs was monitored by fluorescence (λex = 320 nm, λem = 360 nm) using a microplate reader.

Nc1nnc(CN[C@@H]2C[C@H]2c2ccc(OCc3ccccc3)cc2)o1 [ORY-2001, vafidemstat]
active and passive social interaction [1]: had no effect on these parameters | number of evitations [1]: restored to normality | time without social interaction [1]: dose dependently reduced | inhibition at 10 µM [2]: 7% | inhibition at 10 µM [3]: -2% | inhibition at 10 µM [4]: 5% | inhibition at 10 µM [5]: 9% | inhibition at 10 µM [6]: -6% | inhibition at 10 µM [7]: 8% | inhibition at 10 µM [8]: 1% | inhibition at 10 µM [9]: 3% | inhibition at 10 µM [10]: -2% | inhibition at 10 µM [11]: -1% | inhibition at 10 µM [12]: 2% | inhibition at 10 µM [13]: -2% | inhibition at 10 µM [14]: -1% | ex vivo brain MAO-A inhibition, acute setting (brain MAO-A; mice, acute 1 to 100 mg/kg p.o. gavage): only the 100 mg/kg dose led to a significant inhibition | ED50 (brain MAO-A; mouse, po, read-out: ED50 ex vivo brain MAO-A inhibition): ~10 mg/kg | IC50 (Human recombinant MAO-A): 5.47 ± 0.3 µM
